Measurements: article PMC6561935, “Hsp90 middle domain phosphorylation initiates a complex conformational program to recruit the ATPase-stimulating cochaperone Aha1” (Nature Communications, 2019)

Key:
Hsp90 (human Hsp90α) [1] = target: T1, Hsp90 (human Hsp90α) (Homo sapiens, UniProt P07900, H210A); assay: isothermal titration calorimetry; format: binding
T1 construct: gene HSP90AA1; purified full-length Hsp90α, C-terminally dimerized homodimer

Hsp90 (human Hsp90α) [2] = target: T2, Hsp90 (human Hsp90α) (Homo sapiens, UniProt P07900); assay: isothermal titration calorimetry; format: binding
T2 construct: gene HSP90AA1; purified full-length Hsp90α, C-terminally dimerized homodimer

Kd (Hsp90 (human Hsp90α) [1]): 170 ± 9.8 µM
Kd (Hsp90 (human Hsp90α) [2]): 220 ± 37 µM
Structure (SMILES): Nc1ncnc2c1ncn2[C@@H]1O[C@H](COP(=O)(O)OP(=O)(O)NP(=O)(O)O)[C@@H](O)[C@H]1O [AMPPNP]
